# From ChEMBL document CHEMBL5230081, “Battle against Vancomycin-Resistant Bacteria: Recent Developments in Chemical Strategies” (J Med Chem, 2019)
# Where a SMILES comes first, the peptide text is derived from it. [ ]: non-standard residue; d: D form. ξ: configuration not given here. ξW = NC(Cc1c[nH]c2ccccc12)C(=O)O
# Key:
# Pseudomonas aeruginosa [1] = experiment: Antibacterial activity against extensively drug resitant Pseudomonas aeruginosa; format: functional, organism-based
# [2] = Binding affinity to D-Ala-D-Lac
# Enterococcus faecium [3] = experiment: Antimicrobial activity against Vancomycin-resistant Enterococcus faecium assessed as reduction in microbial growth; format: functional
# Enterococcus faecium [4] = experiment: Antimicrobial activity against Vancomycin-resistant (Van A) Enterococcus faecium ATCC 51559 assessed as reduction in microbial growth; format: functional
# Enterococcus faecalis [5] = experiment: Antimicrobial activity against Vancomycin-sensitive Enterococcus faecalis ATCC 29212 assessed as reduction in microbial growth; format: functional
# Staphylococcus aureus [6] = experiment: Antibacterial activity against Vancomycin-intermediate Staphylococcus aureus NRS1 assessed as bacterial growth inhibition; format: functional
# Staphylococcus aureus [7] = experiment: Antibacterial activity against Vancomycin-intermediate Staphylococcus aureus 3797 assessed as inhibition in bacterial growth; format: functional
# Staphylococcus aureus [8] = experiment: Antibacterial activity against Vancomycin-intermediate Staphylococcus aureus assessed as bacterial growth inhibition measured after 24 hrs by microbroth dilution method; format: functional
# Staphylococcus aureus [9] = experiment: Antibacterial activity against Vancomycin-resistant Staphylococcus aureus assessed as bacterial growth inhibition measured after 48 hrs by microbroth dilution method; format: functional
# Enterococcus faecium [10] = experiment: Antimicrobial activity against Vancomycin-resistant (Van M) Enterococcus faecium ATCC 51559 assessed as reduction in microbial growth; format: functional
# Staphylococcus aureus [11] = experiment: Antibacterial activity against Vancomycin-intermediate Staphylococcus aureus Mu50 assessed as bacterial growth inhibition; format: functional
# [12] = Binding affinity to D-Ala-D-Ala
# Pseudomonas aeruginosa [13] = experiment: Synergistic antibacterial activity against multidrug-resistant Pseudomonas aeruginosa ATCC 27853 assessed as reduction in bacterial viability after 12 hrs in presence of 1/2 MIC of vancomycin; format: functional
# Pseudomonas aeruginosa [14] = experiment: Antibacterial activity against Pseudomonas aeruginosa ATCC 27853 assessed as bacterial growth inhibition measured after 24 hrs by microbroth dilution method; format: functional
# Staphylococcus aureus [15] = experiment: Antimicrobial activity against Vancomycin-resistant Staphylococcus aureus incubated for 20 hrs by broth dilution method; format: functional
# Enterobacter cloacae = experiment: Antibacterial activity against Enterobacter cloacae NDM-1 assessed as reduction in bacterial growth by broth microdilution method; format: functional
# Acinetobacter baumannii = experiment: Antibacterial activity against Acinetobacter baumannii R4942 assessed as reduction in bacterial growth by broth microdilution method; format: functional
# Enterococcus faecalis [16] = experiment: Antimicrobial activity against Vancomycin - resistant Enterococcus faecalis assessed as inhibition of bacterial growth; format: functional
# [17] = Enterococcus faecium, read-out: MIC
# [18] = Enterococcus faecium, ATCC 51559, read-out: MIC
molecule,measurement,setting,value
POLYMYXIN B,MIC,Pseudomonas aeruginosa [1],2 µg/mL
CCCCCCCC[n+]1ccc(CN[C@@]2(C)C[C@H](O[C@H]3[C@H](Oc4c5cc6cc4Oc4ccc(cc4Cl)[C@@H](O)[C@@H](NC(=O)[C@@H](CC(C)C)NC)C(=O)N[C@@H](CC(N)=O)C(=O)N[C@H]6C(=O)N[C@H]4C(=O)N[C@H](C(=O)N[C@H](C(=O)NC(=O)[C@H](O)[C@@H](O)[C@H](O[C@@H]6O[C@H](CO)[C@@H](O)[C@H](O)[C@H]6O)[C@H](O)CO)c6cc(O)cc(O)c6-c6cc4ccc6O)[C@H](O)c4ccc(c(Cl)c4)O5)O[C@H](CO)[C@@H](O)[C@@H]3O)O[C@@H](C)[C@H]2O)cc1,Ka,[2],5.7 10^4/M
same,MIC,Enterococcus faecium [3]; [17],0.09 µM
same,MIC,Enterococcus faecium [4]; [18],0.09 µM
same,MIC,Enterococcus faecalis [5],0.1 µM
same,MIC,Staphylococcus aureus [6],0.1 µM
CCCCCCCCCCC(=O)N[C@@H](CCCCN)C(=O)N[C@@H](CCCCN)C(=O)NC(CCCCNC(=O)[C@H]1NC(=O)[C@H]2NC(=O)[C@H](NC(=O)[C@@H]3NC(=O)[C@H](CC(N)=O)NC(=O)[C@H](NC(=O)[C@@H](CC(C)C)NC)[C@H](O)c4ccc(c(Cl)c4)Oc4cc3cc(c4O[C@@H]3O[C@H](CO)[C@@H](O)[C@H](O)[C@H]3O[C@H]3C[C@](C)(N)[C@H](O)[C@H](C)O3)Oc3ccc(cc3Cl)[C@H]2O)c2ccc(O)c(c2)-c2c(O)cc(O)cc21)C(N)=O (some centres not stated),MIC,Enterococcus faecium [4]; [18],2 µg/mL
same,MIC,Staphylococcus aureus [6],0.03 µg/mL
same,MIC,Staphylococcus aureus [7],0.06 µg/mL
H-IRIKIRIK-OH,MIC,Staphylococcus aureus [8],8 µg/mL
same,MIC,Staphylococcus aureus [9],8 µg/mL
CN[C@H](CC(C)C)C(=O)N[C@H]1C(=O)N[C@@H](CC(N)=O)C(=O)N[C@H]2C(=O)N[C@H]3C(=O)N[C@H](C(=O)N[C@H](C(=O)O)c4cc(O)c(CNCCO[C@@H]5O[C@H](CO)[C@H](O)[C@H](O)[C@H]5O)c(O)c4-c4cc3ccc4O)[C@H](O)c3ccc(c(Cl)c3)Oc3cc2cc(c3O[C@@H]2O[C@H](CO)[C@@H](O)[C@H](O)[C@H]2O[C@H]2C[C@](C)(NCc3ccc(-c4ccc(C(F)(F)F)cc4)cc3)[C@H](O)[C@H](C)O2)Oc2ccc(cc2Cl)[C@H]1O,MIC,Enterococcus faecium [4],≤ 0.06 µg/mL
same,MIC,Enterococcus faecium [4]; [18],1 µg/mL
same,MIC,Enterococcus faecium [10],2 µg/mL
same,MIC,Staphylococcus aureus [11],0.25 µg/mL
N=C(N)NCCC[C@H](NC(=O)[C@H](CCCNC(=N)N)NC(=O)[C@H](Cc1c[nH]c2ccccc12)NC(=O)[C@H](Cc1c[nH]c2ccccc12)NC(=O)[C@H](CCCNC(=N)N)NC(=O)[C@H](CCCNC(=N)N)NC(=O)[C@H](Cc1c[nH]c2ccccc12)NC(=O)C(Cc1c[nH]c2ccccc12)NC(=O)[C@H](CCCNC(=N)N)NC(=O)[C@H](Cc1c[nH]c2ccccc12)NC(=O)[C@H](Cc1c[nH]c2ccccc12)NC(=O)[C@@H](N)CCCNC(=N)N)C(=O)O (some centres not stated) (H-RWWR[ξW]WRRWWRR-OH),MIC,Staphylococcus aureus [8],4 µg/mL
same,MIC,Staphylococcus aureus [9],1 µg/mL
CN[C@H](CC(C)C)C(=O)N[C@H]1C(=O)N[C@@H](CC(N)=O)C(=O)N[C@H]2C(=O)N[C@H]3C(=O)N[C@H](C(=O)N[C@H](C(=O)O)c4cc(O)c(CN[C@H]5C(O)O[C@H](CO)[C@H](O)[C@@H]5O)c(O)c4-c4cc3ccc4O)[C@H](O)c3ccc(c(Cl)c3)Oc3cc2cc(c3O[C@@H]2O[C@H](CO)[C@@H](O)[C@H](O)[C@H]2O[C@H]2C[C@](C)(NCc3ccc(-c4ccc(Cl)cc4)cc3)[C@H](O)[C@H](C)O2)Oc2ccc(cc2Cl)[C@H]1O (some centres not stated),MIC,Enterococcus faecium [4],0.25 µg/mL
same,MIC,Enterococcus faecium [4]; [18],2 µg/mL
same,MIC,Enterococcus faecium [10],4 µg/mL
same,MIC,Staphylococcus aureus [11],0.12 µg/mL
CN[C@H](CC(C)C)C(=O)N[C@H]1C(=O)N[C@@H](CC(N)=O)C(=O)N[C@H]2C(=S)N[C@H]3C(=O)N[C@H](C(=O)N[C@H](C(=O)O)c4cc(O)cc(O)c4-c4cc3ccc4O)[C@H](O)c3ccc(c(Cl)c3)Oc3cc2cc(c3O)Oc2ccc(cc2Cl)[C@H]1O,Ka,[2],1.1 10^1/M
same,Ka,[12],1.7 10^2/M
CCCCCCCCN(CCCNC(=O)[C@H]1NC(=O)[C@H]2NC(=O)[C@H](NC(=O)[C@@H]3NC(=O)[C@H](CC(N)=O)NC(=O)[C@H](NC(=O)[C@@H](CC(C)C)NC)[C@H](O)c4ccc(c(Cl)c4)Oc4cc3cc(c4O)Oc3ccc(cc3Cl)[C@H]2O)c2ccc(O)c(c2)-c2c(O)cc(O)cc21)CCCNC(=O)[C@H]1NC(=O)[C@H]2NC(=O)[C@H](NC(=O)[C@@H]3NC(=O)[C@H](CC(N)=O)NC(=O)[C@H](NC(=O)[C@@H](CC(C)C)NC)[C@H](O)c4ccc(c(Cl)c4)Oc4cc3cc(c4O)Oc3ccc(cc3Cl)[C@H]2O)c2ccc(O)c(c2)-c2c(O)cc(O)cc21,Ka,[2],5.7 10^3/M
same,MIC,Enterococcus faecium [4]; [18],2.5 µM
same,Ka,[12],1 10^5/M
same,MIC,Staphylococcus aureus [7],0.6 µM
CN[C@H](CC(C)C)C(=O)N[C@H]1C(=O)N[C@@H](CC(N)=O)C(=O)N[C@H]2C(=O)N[C@H]3C(=O)N[C@H](C(=O)N[C@H](C(=O)NCCC[N+](C)(C)C)c4cc(O)cc(O)c4-c4cc3ccc4O)[C@H](O)c3ccc(c(Cl)c3)Oc3cc2cc(c3O[C@@H]2O[C@H](CO)[C@@H](O)[C@H](O)[C@H]2O[C@H]2C[C@](C)(NCc3ccc(-c4ccc(Cl)cc4)cc3)[C@H](O)[C@H](C)O2)Oc2ccc(cc2Cl)[C@H]1O,MIC,Enterococcus faecium [3],0.01 µg/mL
same,MIC,Enterococcus faecium [4]; [18],0.01 µg/mL
CN[C@H](CC(C)C)C(=O)N[C@H]1C(=O)N[C@@H](CC(N)=O)C(=O)N[C@H]2C(=O)N[C@H]3C(=O)N[C@H](C(=O)N[C@H](C(=O)O)c4cc(O)cc(O)c4-c4cc3ccc4O)[C@H](O)c3ccc(c(Cl)c3)Oc3cc2cc(c3O[C@@H]2O[C@H](CO)[C@@H](O)[C@H](O)[C@H]2O[C@H]2C[C@](C)(NCc3cccc(OCCSSCCOc4cccc(CN[C@@]5(C)C[C@H](O[C@H]6[C@H](Oc7c8cc9cc7Oc7ccc(cc7Cl)[C@@H](O)[C@@H](NC(=O)[C@@H](CC(C)C)NC)C(=O)N[C@@H](CC(N)=O)C(=O)N[C@H]9C(=O)N[C@H]7C(=O)N[C@H](C(=O)N[C@H](C(=O)O)c9cc(O)cc(O)c9-c9cc7ccc9O)[C@H](O)c7ccc(c(Cl)c7)O8)O[C@H](CO)[C@@H](O)[C@@H]6O)O[C@@H](C)[C@H]5O)c4)c3)[C@H](O)[C@H](C)O2)Oc2ccc(cc2Cl)[C@H]1O,MIC,Enterococcus faecium [3]; [17],1 µg/mL
same,MIC,Staphylococcus aureus [6],8 µg/mL
CN[C@H](CC(C)C)C(=O)N[C@H]1C(=O)N[C@@H](CC(N)=O)C(=O)N[C@H]2C(=O)N[C@H]3C(=O)N[C@H](C(=O)N[C@H](C(=O)NC[C@H]4OB(O)c5ccccc54)c4cc(O)cc(O)c4-c4cc3ccc4O)[C@H](O)c3ccc(c(Cl)c3)Oc3cc2cc(c3O[C@@H]2O[C@H](CO)[C@@H](O)[C@H](O)[C@H]2O[C@H]2C[C@](C)(N)[C@H](O)[C@H](C)O2)Oc2ccc(cc2Cl)[C@H]1O,MIC,Staphylococcus aureus [7],1 µM
CN[C@H](CC(C)C)C(=O)N[C@H]1C(=O)N[C@@H](CC(N)=O)C(=O)N[C@H]2CN[C@H]3C(=O)N[C@H](C(=O)N[C@H](C(=O)O)c4cc(O)cc(O)c4-c4cc3ccc4O)[C@H](O)c3ccc(c(Cl)c3)Oc3cc2cc(c3O)Oc2ccc(cc2Cl)[C@H]1O,Ka,[2],5.2 10^3/M
same,Ka,[12],4.8 10^3/M
CC(=O)N[C@@H]1[C@H](Oc2c3cc4cc2Oc2ccc(cc2Cl)[C@@H](O[C@@H]2O[C@@H](CO)[C@@H](O)[C@H](O)[C@@H]2NC(C)=O)[C@@H]2NC(=O)[C@H](NC(=O)[C@@H]4NC(=O)[C@H]4NC(=O)[C@@H](Cc5ccc(c(Cl)c5)O3)NC(=O)[C@H](N)c3ccc(O)c(c3)Oc3cc(O)cc4c3)c3ccc(O)c(c3)-c3c(O[C@H]4O[C@H](CO)[C@@H](O)[C@@H](O)[C@@H]4O)cc(O)cc3[C@@H](C(=O)O)NC2=O)O[C@@H](CO)[C@@H](O)[C@@H]1O,fractional inhibitory concentration index (FICI),Pseudomonas aeruginosa [13],<0.5
same,MIC,Pseudomonas aeruginosa [14],256 µg/mL
CCCCCCCC[N+](C)(C)CCCNC(=O)[C@H]1NC(=O)[C@H]2NC(=O)[C@H](NC(=O)[C@@H]3NC(=O)[C@H](CC(N)=O)NC(=O)[C@H](NC(=O)[C@@H](CC(C)C)NC)[C@H](O)c4ccc(c(Cl)c4)Oc4cc3cc(c4O[C@@H]3O[C@H](CO)[C@@H](O)[C@H](O)[C@H]3O[C@H]3C[C@](C)(N)[C@H](O)[C@H](C)O3)Oc3ccc(cc3Cl)[C@H]2O)c2ccc(O)c(c2)-c2c(O)cc(O)cc21,MIC,Staphylococcus aureus [15],0.3 µM
same,MIC,Enterococcus faecium [4]; [18],12 µM
same,MIC,Enterobacter cloacae,> 100 µM
same,MIC,Staphylococcus aureus [6],0.4 µM
same,MIC,Acinetobacter baumannii,7 µM
CCCCCCCCCCN[C@@]1(C)C[C@H](O[C@H]2[C@H](Oc3c4cc5cc3Oc3ccc(cc3Cl)[C@@H](O)[C@@H](NC(=O)[C@@H](CC(C)C)NC)C(=O)N[C@@H](CC(N)=O)C(=O)N[C@H]5C(=O)N[C@H]3C(=O)N[C@H](C(=O)N[C@H](C(=O)ONCCCNC(=O)[C@H](O)[C@@H](O)[C@H](O[C@@H]5O[C@H](CO)[C@H](O)[C@H](O)[C@H]5O)[C@H](O)CO)c5cc(O)cc(O)c5-c5cc3ccc5O)[C@H](O)c3ccc(c(Cl)c3)O4)O[C@H](CO)[C@@H](O)[C@@H]2O)O[C@@H](C)[C@H]1O,Ka,[2],6 10^4/M
same,MIC,Enterococcus faecalis [16],0.7 µM
same,MIC,Enterococcus faecium [4],1 µM
same,MIC,Enterococcus faecium [4]; [18],0.7 µM
CN[C@H](CC(C)C)C(=O)N[C@H]1C(=O)N[C@@H](CC(N)=O)C(=O)N[C@H]2C(=N)N[C@H]3C(=O)N[C@H](C(=O)N[C@H](C(=O)O)c4cc(O)cc(O)c4-c4cc3ccc4O)[C@H](O)c3ccc(c(Cl)c3)Oc3cc2cc(c3O)Oc2ccc(cc2Cl)[C@H]1O,Ka,[2],6.9 10^4/M
same,Ka,[12],7.3 10^4/M
